The text below walks through data of PubChem BioAssay (NCI).

Structures are written as SMILES.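 Cultured in 96-well plates, cells were exposed to test compound for 48 hours across five concentrations. GI50: concentration for 50% inhibition of growth. The concentration for full growth arrest is given as TGI.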 Where only a bound is given, the exact number is not on record here.

Some test systems named below: COLO 205 colon; MDA-MB-435; CCRF-CEM leukemia; NCI-H226 lung; K-562 leukemia; A549 NSCLC; MALME-3M melanoma; SK-MEL-2 melanoma; BT-549 breast; IGROV1 ovarian.
Experiment in all cases: NCI-60 cell line screen, 48 h

For `Nc1n[nH]c2ccc([C@@H]3Nc4c(F)cc5[nH]ncc5c4[C@H]4C5CCC(C5)[C@@H]34)cc12` (stereo not given in full), the GI50 in the experiment on COLO 205 colon was 0.337 µM; in the experiment on MDA-MB-435, 0.0327 µM; in the experiment on CCRF-CEM leukemia it was 0.332 µM; in the experiment with NCI-H226 lung it was 0.629 µM; with K-562 leukemia it was 0.0546 µM; with A549 NSCLC, 0.352 µM. Further, the GI50 in the experiment on MALME-3M melanoma is 1.38 µM; in the experiment on SK-MEL-2 melanoma, 0.598 µM; with BT-549 breast, 0.374 µM; in the experiment on IGROV1 ovarian it was 0.391 µM. Also, the TGI in the experiment on COLO 205 colon is 1.67 µM; with MDA-MB-435, 0.161 µM; with CCRF-CEM leukemia, greater than 52.1 µM; in the experiment on NCI-H226 lung, greater than 19.9 µM; with K-562 leukemia, greater than 52.1 µM; in the experiment with A549 NSCLC, greater than 100 µM. The TGI is greater than 57.9 µM in the experiment on MALME-3M melanoma, greater than 44.3 µM in the experiment with SK-MEL-2 melanoma, greater than 31.8 µM with BT-549 breast and greater than 46.2 µM in the experiment with IGROV1 ovarian.
For the compound `Cc1cc(-c2ccco2)cc(C)c1/C=C/c1cncc(-c2nn[nH]n2)c1`, the GI50 with COLO 205 colon, with MDA-MB-435, with CCRF-CEM leukemia, in the experiment on NCI-H226 lung, in the experiment on K-562 leukemia and with A549 NSCLC was greater than 25 µM each time. Besides, the GI50 in the experiment on MALME-3M melanoma, in the experiment on SK-MEL-2 melanoma, in the experiment on BT-549 breast and with IGROV1 ovarian was greater than 25 µM throughout. Moreover, the TGI with COLO 205 colon, in the experiment with MDA-MB-435, in the experiment on CCRF-CEM leukemia, in the experiment on NCI-H226 lung, in the experiment on K-562 leukemia and in the experiment with A549 NSCLC was greater than 25 µM in each case. Further, the TGI in the experiment with MALME-3M melanoma, with SK-MEL-2 melanoma, with BT-549 breast and with IGROV1 ovarian was greater than 25 µM throughout.
With `Cc1n(Cc2ccc3ccccc3n2)cc[n+]1Cc1ccc2ccccc2c1`, the GI50 in the experiment on COLO 205 colon was 0.302 µM; with MDA-MB-435, 0.412 µM; with CCRF-CEM leukemia it was 1.07 µM; in the experiment on NCI-H226 lung it was 0.965 µM; with K-562 leukemia, 0.422 µM; in the experiment on A549 NSCLC, 1.34 µM. In addition, the GI50 in the experiment on MALME-3M melanoma is 0.394 µM; in the experiment on SK-MEL-2 melanoma, 0.522 µM; with BT-549 breast, 0.64 µM; in the experiment with IGROV1 ovarian it was 1.12 µM. For the same compound, the TGI in the experiment with COLO 205 colon amounted to 1.1 µM; in the experiment on MDA-MB-435 it was 2.69 µM; with CCRF-CEM leukemia, 11.5 µM; with NCI-H226 lung, 8.36 µM; in the experiment on K-562 leukemia, 12.9 µM; with A549 NSCLC, 13.4 µM. The TGI came to 2.37 µM in the experiment with MALME-3M melanoma, 2.99 µM in the experiment with SK-MEL-2 melanoma, 4.1 µM with BT-549 breast and 4.76 µM in the experiment with IGROV1 ovarian.
As to `Cc1ccc(O)cc1Nc1ccnc2cc(-c3ccccn3)ccc12`, the GI50 in the experiment on COLO 205 colon is 3.92 µM; in the experiment on MDA-MB-435, 1.98 µM; in the experiment on CCRF-CEM leukemia, 4.86 µM; in the experiment with NCI-H226 lung, 3.88 µM; in the experiment on K-562 leukemia, 0.0973 µM; in the experiment on A549 NSCLC, 3.8 µM. The GI50 with MALME-3M melanoma was 3.59 µM; with SK-MEL-2 melanoma, 3.86 µM; in the experiment on BT-549 breast, 4.9 µM; in the experiment on IGROV1 ovarian, 0.502 µM. Moreover, the TGI in the experiment on COLO 205 colon came to 7.34 µM; in the experiment on MDA-MB-435, 5.65 µM; in the experiment with CCRF-CEM leukemia, 15 µM; with NCI-H226 lung, 11.9 µM; with K-562 leukemia, 2.52 µM; with A549 NSCLC, 8.39 µM. Besides, the TGI in the experiment with MALME-3M melanoma was determined as 8.32 µM; with SK-MEL-2 melanoma, 8.03 µM; in the experiment with BT-549 breast, 10.3 µM; with IGROV1 ovarian, 2.13 µM.
For `CN(c1ccc(NC(=O)NCCN2CCOCC2)cc1)c1ccnc(Nc2ccc(CS(C)(=O)=O)cc2)n1`, the GI50 with COLO 205 colon was greater than 16.8 µM; in the experiment on MDA-MB-435 it was greater than 25 µM; in the experiment on CCRF-CEM leukemia, greater than 25 µM; in the experiment with NCI-H226 lung, 9.18 µM; with K-562 leukemia, greater than 25 µM; with A549 NSCLC, greater than 25 µM. Besides, the GI50 in the experiment on MALME-3M melanoma, in the experiment on SK-MEL-2 melanoma, in the experiment with BT-549 breast and with IGROV1 ovarian was greater than 25 µM each time. Also, the TGI with COLO 205 colon, in the experiment with MDA-MB-435, in the experiment on CCRF-CEM leukemia, in the experiment on NCI-H226 lung, in the experiment with K-562 leukemia and in the experiment on A549 NSCLC was greater than 25 µM throughout. The TGI with MALME-3M melanoma, with SK-MEL-2 melanoma, in the experiment with BT-549 breast and in the experiment on IGROV1 ovarian was greater than 25 µM each time.
As for `Oc1ccc(-c2[nH]c3ccccc3c2-c2nc3ccccc3o2)cc1`, the GI50 was 3.54 µM in the experiment on COLO 205 colon; 2.26 µM in the experiment on MDA-MB-435; 4.91 µM in the experiment with CCRF-CEM leukemia; 3.14 µM in the experiment with NCI-H226 lung; 3.98 µM in the experiment with K-562 leukemia; 3.15 µM with A549 NSCLC. In addition, the GI50 with MALME-3M melanoma is 7.47 µM; in the experiment with SK-MEL-2 melanoma, 3.03 µM; in the experiment on BT-549 breast, 5.41 µM; in the experiment with IGROV1 ovarian, 3.34 µM. For the same compound, the TGI in the experiment on COLO 205 colon was found to be 12.6 µM; with MDA-MB-435, 8.74 µM; with CCRF-CEM leukemia, 46.2 µM; in the experiment on NCI-H226 lung it was 15.3 µM; in the experiment with K-562 leukemia, 21.8 µM; in the experiment with A549 NSCLC, 11.4 µM. For the same compound, the TGI with MALME-3M melanoma turned out to be 28.3 µM; with SK-MEL-2 melanoma, 12.3 µM; in the experiment with BT-549 breast it was 18.8 µM; in the experiment with IGROV1 ovarian, 16.3 µM.
Regarding `Cc1ccccc1CNc1c2ccccc2nc2ccccc12`, the GI50 with COLO 205 colon is 1.6 µM; in the experiment with MDA-MB-435 it was 1.67 µM; in the experiment on CCRF-CEM leukemia it was 1.97 µM; in the experiment on NCI-H226 lung it was 2.24 µM; in the experiment on K-562 leukemia, 2.32 µM; in the experiment on A549 NSCLC it was 2.09 µM. Also, the GI50 in the experiment with MALME-3M melanoma was 1.66 µM; in the experiment with SK-MEL-2 melanoma it was 2.01 µM; in the experiment with BT-549 breast, 2.18 µM; in the experiment on IGROV1 ovarian it was 2 µM. Moreover, the TGI in the experiment with COLO 205 colon was 3.5 µM; in the experiment on MDA-MB-435 it was 3.18 µM; in the experiment on CCRF-CEM leukemia, 12.6 µM; in the experiment on NCI-H226 lung it was 6.17 µM; in the experiment on K-562 leukemia, 11.4 µM; with A549 NSCLC, 5.22 µM. For the same compound, the TGI was found to be 3.11 µM with MALME-3M melanoma, 4.19 µM with SK-MEL-2 melanoma, 6.15 µM in the experiment with BT-549 breast and 5.01 µM with IGROV1 ovarian.
